Laboratory results reported in patent publication US6579881B2 (Eisai Co., Ltd., priority 1997, dated 2003).

Key:
serotonin 1A receptor = biological target: T1, serotonin 1A receptor (Rattus norvegicus, UniProt P19327); experiment: Binding test on [3H] 8-hydroxy-dipropylaminotetralin (serotonin 1A receptor); conditions: [3H] 8-OH-DPAT 0.5 nM, receptor fraction of rat hippocampus; read-out: 5HT1a
T1 construct: To the receptor fraction of the hippocampus were added a test compound and 0.5 nM of [^3H]; 8-hydroxy-dipropylaminotetralin; from tissue; host or cells: SD rat hippocampus, membrane (receptor) fraction
T1 sequence (P19327 1-422): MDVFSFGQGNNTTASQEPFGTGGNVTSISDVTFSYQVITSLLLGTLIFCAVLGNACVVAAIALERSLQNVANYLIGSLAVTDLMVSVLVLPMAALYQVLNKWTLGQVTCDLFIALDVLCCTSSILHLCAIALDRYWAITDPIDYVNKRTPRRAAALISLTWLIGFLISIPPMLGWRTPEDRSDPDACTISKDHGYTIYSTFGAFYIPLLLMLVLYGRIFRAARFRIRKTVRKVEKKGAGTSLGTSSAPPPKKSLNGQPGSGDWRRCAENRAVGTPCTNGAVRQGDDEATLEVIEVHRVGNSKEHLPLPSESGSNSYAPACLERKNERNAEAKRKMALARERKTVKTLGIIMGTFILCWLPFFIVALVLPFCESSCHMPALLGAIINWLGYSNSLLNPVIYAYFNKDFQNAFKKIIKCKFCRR

serotonin 2 receptor = serotonin 2 receptor (Rattus norvegicus, UniProt P14842); experiment: Binding test on [3H] ketanserin (serotonin 2 receptor); conditions: [3H] ketanserin 0.3 nM, receptor fraction of rat cerebral cortex; read-out: 5HT2
α1 adrenalin receptor = experiment: Binding test on [3H] prazosin (α1 adrenalin receptor); parameters: species or system rat; conditions: [3H] prazosin about 0.2 nM, receptor fraction of rat cerebral cortex

serotonin 2 receptor, sequence (P14842 whole entry): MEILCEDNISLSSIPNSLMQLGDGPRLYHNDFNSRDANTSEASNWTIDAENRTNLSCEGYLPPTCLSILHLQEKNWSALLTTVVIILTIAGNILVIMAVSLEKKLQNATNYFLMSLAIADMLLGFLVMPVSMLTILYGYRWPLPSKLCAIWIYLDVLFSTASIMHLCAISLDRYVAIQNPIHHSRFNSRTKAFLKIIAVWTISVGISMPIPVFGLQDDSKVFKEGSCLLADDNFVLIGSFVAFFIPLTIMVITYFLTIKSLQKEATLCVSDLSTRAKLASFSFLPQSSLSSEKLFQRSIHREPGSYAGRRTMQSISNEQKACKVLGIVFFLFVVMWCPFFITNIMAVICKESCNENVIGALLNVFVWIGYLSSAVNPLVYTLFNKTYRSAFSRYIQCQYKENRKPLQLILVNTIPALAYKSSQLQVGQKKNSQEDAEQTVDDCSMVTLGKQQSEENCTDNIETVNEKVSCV

| Structure (SMILES) | Ki (serotonin 1A receptor) [nM] | Ki (serotonin 2 receptor) [nM] | melting point | Ki (α1 adrenalin receptor) [nM] |
| --- | --- | --- | --- | --- |
| CNC(=O)Cc1ccc2ccn(C3CCN(CCc4ccc(F)cc4)CC3)c2c1 [Example 316, 1-[1-(4-fluorophenethyl)piperidin-4-yl]-6-methylcarbamoylmethylindole] | 1.82 | 1.26 | 149.4 to 150.5 °C | 63.7 |
| CS(=O)(=O)Oc1ccc2ccn(C3CCN(CCc4ccc(F)cc4)CC3)c2c1 [Example 336, 1-[1-(4-fluorophenethyl)piperidin-4-yl]-6-methanesulfonyloxyindole] | < 0.2 | > 20 | 213 to 215 °C | 53.7 |
| O=C(CCCl)NCc1ccc2ccn(C3CCN(CCc4ccc(F)cc4)CC3)c2c1 [Example 367, 1-[1-(4-fluorophenethyl)piperidin-4-yl]-6-(3-chloropropionylamino)methylindole] | 1.63 | 1.76 | 121 to 122 °C | 45.8 |
| O=C(Cc1ccc2ccn(C3CCN(CCc4ccc(F)cc4)CC3)c2c1)NC(CO)CO.O=C(O)C(=O)O [Example 304, 1-[1-(4-fluorophenethyl)piperidin-4-yl]-6-(1,3-dihydroxypropan-2-yl)carbamoylmethylindole Oxalate] | 8.37 | 6.26 | 213.1 to 214.5 °C (dec.) | 141 |
| CN(C)CCNC(=O)Cc1ccc2ccn(C3CCN(CCc4ccc(F)cc4)CC3)c2c1 [Example 307, 1-[1-(4-fluorophenethyl)piperidin-4-yl]-6-(2-dimethylaminoethyl)carbamoylmethylindole] | 7.02 | 0.83 | 111.8 to 112.9 °C | 51.5 |
| O=C(CF)NCc1ccc2ccn(C3CCN(CCc4ccc(F)cc4)CC3)c2c1 [Example 366, 1-[1-(4-fluorophenethyl)piperidin-4-yl]-6-fluoroacetamidomethylindole] | 0.48 | 2.05 | 106 to 108 °C | 74.6 |
| O=C(Cc1ccc2ccn(C3CCN(CCc4ccc(F)cc4)CC3)c2c1)N1CCC(O)CC1 [Example 302, 1-[1-(4-fluorophenethyl)piperidin-4-yl]-6-(4-hydroxypiperidin-1-ylcarbonylmethyl)indole] | 2.92 | 60.5 | 190.5 to 192.2 °C (dec.) | 143 |
| O=C(NCc1ccc2ccn(C3CCN(CCc4ccc(F)cc4)CC3)c2c1)C1CC1 [Example 363, 1-[1-(4-fluorophenethyl)piperidin-4-yl]-6-cyclopropanecarboxamidomethylindole] | 1.5 | 3.39 | 116 to 117 °C | 106 |
| CS(=O)(=O)NCc1ccc2ccn(C3CCN(CCc4ccc(F)cc4)CC3)c2c1 [Example 322, 1-[1-(4-fluorophenethyl)piperidin-4-yl]-6-methanesulfonamidomethylindole] | 0.08 | 30.4 | 121 to 122 °C | 41.3 |
| CCNC(=O)Cc1ccc2ccn(C3CCN(CCc4ccccc4F)CC3)c2c1 [Example 344, 1-[1-(2-fluorophenethyl)piperidin-4-yl]-6-ethylcarbamoylmethylindole] | 1.78 | 1.64 | 147 to 148.6 °C | 74.9 |
| CC(=O)NCc1ccc2ccn(C3CCN(CCc4ccccc4F)CC3)c2c1 [Example 352, 1-[1-(2-fluorophenethyl)piperidin-4-yl]-6-acetamidomethylindole] | 1.58 | 0.75 | 101 to 102 °C | 96.7 |
| CN(C)C(=O)Cc1ccc2ccn(C3CCN(CCc4ccc(F)cc4)CC3)c2c1.O=C(O)C(=O)O [Example 301, 1-[1-(4-fluorophenethyl)piperidin-4-yl]-6-dimethylcarbamoylmethylindole Oxalate] | 0.8 | 21.9 | 170.1 to 170.6 °C | 66.9 |
| CNC(=O)NCc1ccc2ccn(C3CCN(CCc4ccc(F)cc4)CC3)c2c1 [Example 397, 1-[1-(4-fluorophenethyl)piperidin-4-yl]-6-(3-methylureido)methylindole] | 1.28 | 2.27 | 192 °C (dec.) | 27.1 |

The remaining lines, values ahead:

| Ki (serotonin 1A receptor) [nM] | Ki (serotonin 2 receptor) [nM] | melting point | Ki (α1 adrenalin receptor) [nM] | Structure (SMILES) |
| --- | --- | --- | --- | --- |
| 0.85 | 3.64 | 156.4 to 156.8 °C | 195 | O=C(Cc1ccc2ccn(C3CCN(CCc4ccc(F)cc4)CC3)c2c1)NC1CC1 [Example 295, 1-[1-(4-fluorophenethyl)piperidin-4-yl]-6-[N-(cyclopropylcarbamoyl)methyl]indole] |
| 1.72 | 6.83 | 116.8 to 117.5 °C | 116 | OCc1ccc2ccn(C3CCN(CCc4ccccc4F)CC3)c2c1 [Example 391, 1-[1-(2-fluorophenethyl)piperidin-4-yl]-6-hydroxymethylindole] |
| 2.06 | > 20 | 101 to 102 °C | 140 | CC(=O)NCc1ccc2c(Cl)cn(C3CCN(CCc4ccc(F)cc4)CC3)c2c1 [Example 328, 3-chloro-1-[1-(4-fluorophenethyl)piperidin-4-yl]-6-acetamidomethylindole] |
| 2.24 | 0.65 | 173.8 to 174.6 °C | 44.3 | O=C(Cc1ccc2ccn(C3CCN(CCc4ccc(F)cc4)CC3)c2c1)NCC1OCCO1 [Example 347, 1-[1-(4-fluorophenethyl)piperidin-4-yl]-6-(1,3-dioxolan-2-ylmethyl)carbamoylmethylindole] |
| 0.22 | 8.12 | 148 to 149 °C | 88.5 | CC(=O)NCc1ccc2ccn(C3CCN(CCc4ccc(Cl)cc4)CC3)c2c1 [Example 349, 1-[1-(4-chlorophenethyl)piperidin-4-yl]-6-acetamidomethylindole] |
| 0.11 | 8.28 | 133 to 135 °C | 77 | CS(=O)(=O)c1ccc2ccn(C3CCN(CCc4ccc(F)cc4)CC3)c2c1 [Example 331, 1-[1-(4-fluorophenethyl)piperidin-4-yl]-6-methanesulfonylindole] |
| 0.27 | > 20 | 101 to 102 °C | 175 | COc1ccc(CCN2CCC(n3ccc4ccc(CNC(C)=O)cc43)CC2)cc1 [Example 351, 1-[1-(4-methoxyphenethyl)piperidin-4-yl]-6-acetamidomethylindole] |
| 0.78 | 12.6 | 156 to 157 °C | 144 | O=C1CNC(=O)N1Cc1ccc2ccn(C3CCN(CCc4ccc(F)cc4)CC3)c2c1 [Example 353, 1-[1-(4-fluorophenethyl)piperidin-4-yl]-6-(2,4-imidazolidinedion-3-yl)methylindole] |
| 0.14 | > 20 | 131 to 133 °C | 203 | OCCCc1ccc2ccn(C3CCN(CCc4ccc(F)cc4)CC3)c2c1 [Example 321, 1-[1-(4-fluorophenethyl)piperidin-4-yl]-6-(3-hydroxypropyl)indole] |
| 2.87 | 1.56 | 118 to 119 °C | 116 | CCC(=O)NCc1ccc2ccn(C3CCN(CCc4ccccc4F)CC3)c2c1 [Example 380, 1-[1-(2-fluorophenethyl)piperidin-4-yl]-6-propionylaminomethylindole] |
| 1.22 | 4.79 | 97 to 98 °C | 90.5 | CC(C)C(=O)NCc1ccc2ccn(C3CCN(CCc4ccc(F)cc4)CC3)c2c1 [Example 354, 1-[1-(4-fluorophenethyl)piperidin-4-yl]-6-isobutyrylaminomethylindole] |
| 0.42 | 3.11 | 79 to 80 °C | 61.6 | O=C(NCc1ccc2ccn(C3CCN(CCc4ccc(F)cc4)CC3)c2c1)C(F)F [Example 365, 1-[1-(4-fluorophenethyl)piperidin-4-yl]-6-difluoroacetamidomethylindole] |
| 0.04 | > 20 | 152 to 154 °C | 212 | Fc1ccc(CCN2CCC(n3ccc4cc5scnc5cc43)CC2)cc1 [Example 334, 1-[1-(4-fluorophenethyl)piperidin-4-yl]thiazolo[5.4-f]indole] |
| 0.98 | 4.17 | 131.1 to 131.9 °C | 226 | CCCNC(=O)Cc1ccc2ccn(C3CCN(CCc4ccc(F)cc4)CC3)c2c1 [Example 297, 1-[1-(4-fluorophenethyl)piperidin-4-yl]-6-(n-propylcarbamoylmethyl)indole] |
| 0.07 | > 20 | 172 to 175 °C | 21.3 | CNS(=O)(=O)Cc1ccc2ccn(C3CCN(CCc4ccc(F)cc4)CC3)c2c1 [Example 338, 1-[1-(4-fluorophenethyl)piperidin-4-yl]-6-(N-methylsulfamoylmethyl)indole] |
